US11787791B2, “Inhibitors of VAP-1” (ACUCELA INC., priority 2018, dated 2023)
Where two headings read alike, the source gives them in different places.

Assays:
Type in all cases: biochemical
rhMAO-B = rhMAO-B (Homo sapiens (Human), UniProt P27338); assay: MAO-B inhibition assay (modified Promega MAO-Glo)
Description: (§1) The capability of compounds described herein to inhibit MAO was determined using a modified Promega MAO-Glo™ assay kit. The substrate ((4S)-4,5-dihydro-2-(6-hydroxybenzothiazolyl)-4-thiazolecarboxylic acid) was converted by MAO to produce methyl ester luciferin. The luciferin was then converted by luciferase to produce oxyluciferin and light. The light was measured using a luminescence setting on the plate reader. A standard curve was prepared by serially diluting luciferin in reaction buffer. The standard kit reaction buffer was used—100 mM HEPES (pH 7.5), 5% glycerol. The substrate was dispensed into the wells so that the final concentration for MAO-A inhibition assay would be 10 μM and MAO-B inhibition assay would be 1 μM. Inhibitors were diluted in DMSO to 4× and distributed to the appropriate wells. Clorgyline and Deprenyl served as positive controls. rhMAO-A and rhMAO-B were purchased from Sigma. MAO-A or MAO-B was added to the appropriate wells. The plate was incubated for 1 hour, at room temperature with gentle shaking (90 rpm). The detection agent was added at equal volume (48 μL detection agent to 48 μL reaction). The plate was incubated for 20 minutes, at room temperature with gentle shaking (90 rpm). The plate luminescence was read. Data processing was performed using Prism software.
(§2) The capability of compounds described herein to inhibit MAO was determined using a modified Promega MAO-Glo™ assay. Test compounds, substrate and enzyme were incubated per manufacturer instructions for 1 hour, at room temperature with gentle shaking (90 rpm) before addition of detection agent. The detection agent was added at equal volume (48 μL detection agent to 48 μL reaction). The plate was incubated for 20 minutes, at room temperature with gentle shaking (90 rpm). The plate luminescence was read. Data processing was performed using Prism software.

rhMAO-A = rhMAO-A (Homo sapiens (Human), UniProt P21397); assay: MAO-A inhibition assay (modified Promega MAO-Glo); conditions: substrate 10 μM, 1 hour at room temperature
Description: as §1, §2

rhVAP-1 = rhVAP-1 (Homo sapiens (Human), UniProt Q16853); assay: VAP-1 fluorometric assay (Amplex Red/HRP, H2O2 from oxidative deamination of benzylamine); conditions: rhVAP-1, 50 μM benzylamine, 30 minutes at 37° C., pH 7.4
Description: The capability of compounds described herein to inhibit the enzymatic activity of vascular adhesion protein-1 (VAP-1) was determined by fluorometric assay. The assay procedure provided by R&D Systems was modified slightly for use as an inhibitor screening assay. The assay measured the H2O2 generated from the oxidative deamination of benzylamine by rhVAP-1 by converting Amplex® Red to the fluorescent product, resorufin, via horseradish peroxidase (HRP) and H2O2. Reaction buffer was 10 mM NaHCO3, pH 7.4. A standard curve was prepared by serially diluting H2O2 in reaction buffer. A 10 μM solution of resorufin was prepared in reaction buffer and was dispensed to 2 wells. These wells served as positive control for maximum fluorescence. Reaction buffer was added to the individual wells so that the final volume in each well was 100 μL. Amplex Red was diluted to 1 mM in reaction buffer. A 10 U stock of HRP was prepared in reaction buffer. A reaction cocktail was prepared by mixing equal parts 1 mM Amplex Red with 10 U HRP with 3 parts reaction buffers. The reaction cocktail was added to the appropriate wells, so that that final concentration in the well was 0.05 mM Amplex Red and 0.5 U HRP. A 200 μM solution of benzylamine was prepared in reaction buffer. Benzylamine was added to the appropriate wells so that the final concentration was 50 μM. Inhibitors were diluted in DMSO to 20× and distributed to the appropriate wells. UP-1207 served a positive control. rhVAP-1 was purchased from R&D Systems. The concentration used for each lot was determined so that the activity was equal to the first lot. […] The plate was read at […]. […]
The capability of compounds described herein to inhibit the enzymatic activity of vascular adhesion protein-1 (VAP-1) was determined by fluorometric assay. […] The assay measured the H2O2 generated from the oxidative deamination of benzylamine by rhVAP-1 by converting Amplex® Red to the fluorescent product, resorufin, via horseradish peroxidase (HRP) and H2O2. […] The plate was read at 530/35 emission and 590/35 excitation. […]

[1] = rhMAO-B, substrate 1 μM, 1 hour at room temperature, read-out: MAO B IC50

rhMAO-B, sequence (P27338 whole entry): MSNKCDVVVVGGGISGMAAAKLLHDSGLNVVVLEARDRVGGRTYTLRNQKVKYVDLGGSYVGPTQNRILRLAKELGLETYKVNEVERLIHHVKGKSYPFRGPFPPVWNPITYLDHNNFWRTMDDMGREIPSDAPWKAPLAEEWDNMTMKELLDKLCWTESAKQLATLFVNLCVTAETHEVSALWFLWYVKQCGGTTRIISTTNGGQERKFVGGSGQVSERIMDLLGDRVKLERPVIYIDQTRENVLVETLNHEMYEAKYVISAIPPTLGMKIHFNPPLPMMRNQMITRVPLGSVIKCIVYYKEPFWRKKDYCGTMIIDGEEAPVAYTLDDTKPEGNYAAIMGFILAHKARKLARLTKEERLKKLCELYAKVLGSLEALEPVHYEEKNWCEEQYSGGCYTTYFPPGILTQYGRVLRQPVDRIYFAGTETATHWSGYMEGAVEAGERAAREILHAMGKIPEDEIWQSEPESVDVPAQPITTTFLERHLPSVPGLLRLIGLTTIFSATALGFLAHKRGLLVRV
rhVAP-1, sequence (Q16853 whole entry): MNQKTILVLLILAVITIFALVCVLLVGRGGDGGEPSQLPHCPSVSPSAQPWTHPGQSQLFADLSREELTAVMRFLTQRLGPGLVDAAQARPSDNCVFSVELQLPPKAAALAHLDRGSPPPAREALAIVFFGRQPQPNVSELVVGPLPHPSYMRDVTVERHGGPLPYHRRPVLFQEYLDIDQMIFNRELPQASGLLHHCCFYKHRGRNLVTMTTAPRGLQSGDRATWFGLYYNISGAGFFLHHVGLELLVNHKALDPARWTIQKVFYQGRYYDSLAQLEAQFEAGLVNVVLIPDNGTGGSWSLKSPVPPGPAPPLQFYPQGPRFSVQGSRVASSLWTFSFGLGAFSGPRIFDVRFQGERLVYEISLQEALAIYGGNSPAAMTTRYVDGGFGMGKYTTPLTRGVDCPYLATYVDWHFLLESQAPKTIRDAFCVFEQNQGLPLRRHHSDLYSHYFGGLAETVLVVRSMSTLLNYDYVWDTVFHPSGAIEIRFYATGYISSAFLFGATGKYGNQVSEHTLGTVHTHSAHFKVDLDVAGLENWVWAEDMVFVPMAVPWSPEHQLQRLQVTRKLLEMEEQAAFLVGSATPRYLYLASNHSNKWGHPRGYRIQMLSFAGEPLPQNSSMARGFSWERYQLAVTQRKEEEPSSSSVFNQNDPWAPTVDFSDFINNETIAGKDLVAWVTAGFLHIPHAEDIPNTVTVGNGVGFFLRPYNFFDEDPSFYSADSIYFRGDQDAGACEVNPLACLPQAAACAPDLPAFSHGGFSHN
rhMAO-A, sequence (P21397 whole entry): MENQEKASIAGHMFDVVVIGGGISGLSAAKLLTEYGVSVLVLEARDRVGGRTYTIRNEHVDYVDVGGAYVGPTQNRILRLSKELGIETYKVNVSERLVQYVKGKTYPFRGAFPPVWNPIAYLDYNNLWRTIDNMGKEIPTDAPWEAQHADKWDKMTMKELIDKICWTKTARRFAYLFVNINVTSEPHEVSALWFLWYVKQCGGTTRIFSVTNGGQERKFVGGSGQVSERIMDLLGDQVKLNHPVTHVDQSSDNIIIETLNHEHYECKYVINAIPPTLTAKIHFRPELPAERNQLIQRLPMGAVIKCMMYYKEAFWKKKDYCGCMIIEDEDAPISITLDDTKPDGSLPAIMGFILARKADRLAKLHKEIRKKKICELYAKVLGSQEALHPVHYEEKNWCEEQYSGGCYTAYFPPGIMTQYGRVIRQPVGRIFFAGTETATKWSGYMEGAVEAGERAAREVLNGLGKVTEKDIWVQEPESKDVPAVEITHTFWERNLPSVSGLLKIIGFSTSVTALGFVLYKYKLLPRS

| IC50 (rhMAO-B) [nM] | SMILES | IC50 (rhMAO-B; [1]) [nM] | IC50 (rhMAO-A) [nM] | IC50 (rhVAP-1) [nM] |
| --- | --- | --- | --- | --- |
| – | CC1CCN(c2nc3ccc(OC/C(=C/F)CN)cc3o2)C1 (stereo not drawn) [Example 30, (E)-3-fluoro-2-(((2-(3-methylpyrrolidin-1-yl)benzo[d]oxazol-6-yl)oxy)methyl)prop-2-en-1-amine 4-methylbenzenesulfonate] | 100 to 1000 | 10000 to 30000 | < 100 |
| – | CC1CCN(c2nc3ccc(OC/C(=C\F)CN)cc3o2)C1 (stereo not drawn) [Example 42, (Z)-3-fluoro-2-(((2-(3-methylpyrrolidin-1-yl)benzo[d]oxazol-6-yl)oxy)methyl)prop-2-en-1-amine 4-methylbenzenesulfonate] | 1000 to 10000 | 1000 to 10000 | < 100 |
| 100 to 1000 | CCCCn1nc2ccc(OC/C(=C\F)CN)cc2n1 [Example 66, (Z)-2-(((2-butyl-2H-benzo[d][1,2,3]triazol-5-yl)oxy)methyl)-3-fluoroprop-2-en-1-amine 4-methylbenzenesulfonate] | – | 1000 to 10000 | < 100 |
